Laboratory results taken from article PMC4506530, “Small-Molecule Inhibitors That Target Protein–Protein Interactions in the RAD51 Family of Recombinases” (Chemmedchem, 2014).
Entries after “also recorded” stand apart in the source; their conditions may differ.

Tests used:
HumRADA2 [1] = biological target: T1, HumRADA2 (Pyrococcus furiosus, UniProt O74036, D220A/DEL288-314/E219S/I169M/K221M/V202Y/Y201A); experiment: Competitive ITC experiments to HumRADA2 (ligand titrated in the presence of compound); format: binding; details: protein pre-incubated with compound (200 μM 5 c)
Method: The KD measurement of each ligand was then repeated, but in the presence of 200 μM 5 c (bottom row titrations, Figure 2 B).
(§1) Supplemental Experimental Procedures
(§2) C-terminal ATPase domain of P. furiosus RadA (residues 108–349, with deletion of the “L2” loop residues 288–314) was expressed in E.coli and purified as described before using ion-exchange ad size exclusion chromatographies.[1] Purified protein was concentrated to 0.5 mM, flash frozen in liquid nitrogen and stored at -80C. Protein concentration was determined by measuring absorbance at 280 nm in 6M GndHCl and using calculated absorption coefficient […]
(§3) Isothermal Titration Calorimetry
(§4) ITC experiments were performed at 25°C on a MicroCal ITC-200 (GE Healthcare).
(§5) HumRadA2 (humanized RadA) (600 µM in 20 mM MES pH 6.0 with 100 mM NaCl and 0.5 mM EDTA was diluted with Tris buffer (200 mM, pH 7.5 with 100 mM NaCl), and DMSO was added to match to the ligand solution. In titrations with ATP, 5 mM MgCl2 was included in the ligand buffer and the protein buffer. Compounds in DMSO were diluted into the same Tris buffer to give a final concentration of 0.6–10 mM ligand in 10% DMSO and Tris buffer. Care was taken to ensure that the DMSO concentrations in the protein and ligand solutions were well matched so as to avoid artefacts arising from heats of dilution of DMSO. In a typical experiment, protein (60 µM) was loaded in the sample cell, and 16 injections (2.4 µL) of 4.8 s duration were made at 80 s intervals from a syringe loaded with ligand (0.6–10 mM) and rotating at 1000 rpm. In all titrations, an initial injection of ligand (0.4 µL) was made and discarded during data analysis. Control titrations of ligand to buffer were performed and […]
(§6) The thermodynamic parameters were obtained by fitting the data to a single-site-binding model by using Origin software and fixing the stoichiometry as 1.0 for […]

wild-type RadA = experiment: ITC, direct binding to unhumanised wild-type RadA; set-up: species or system Pyrococcus furiosus; details: unhumanised wild-type RadA protein
HumRADA2 [2] = biological target: T1, HumRADA2; experiment: Isothermal titration calorimetry (ITC), direct binding to HumRADA2
Excerpt: We previously published fragment-screening results using a humanised RAD51 surrogate from Pyrococcus furiosus, which we refer to as HumRADA2 (previously referred to as MAYSAM RadA).[23] In this surrogate protein, the N-terminal domain with the oligomerisation sequence was removed to monomerise the protein and expose the FxxA binding site for screening, and six surface residues were mutated around the Phe pocket in order to humanise the protein in this region.
as §1, §2, §3, §4, §5, §6

[3] = ITC thermodynamic binding profile, Table S1

## Cl.N[C@@H](Cc1c[nH]c2ccccc12)C(=O)OCCc1ccccc1 [5 c]
HumRADA2 [1]
  competition with binding of Ac-FHTA-NH2 tetrapeptide: competes with and blocks the binding; also recorded: shows competition with the FxxA binding site
  competition with binding of the RadA self-oligomerisation peptide: competes with and blocks the binding; also recorded: shows competition with the FxxA binding site
  effect on binding of ATP: not affected; also recorded: not the ATP binding site
wild-type RadA
  binding to wild-type RadA: no binding
HumRADA2 [2]
  Kd: 35 ± 4 µM
HumRADA2 [2]; [3]
  -TDS: -3.3 kcal/mol
  DG: -6.0 kcal/mol
  DH: -2.7 kcal/mol
HumRADA2 [2]; LLE=pKD−clog P, clog P calculated with Instant JChem (ChemAxon), tryptophan ester series (Table 1)
  LLE: 1.1
HumRADA2 [2]; tryptophan ester series (Table 1)
  LE (ligand efficiency): 0.26 kcal mol−1 per heavy atom
